Test results taken from paper PMC5672931 (British Journal of Cancer, 2017).
Marks after values point to notes of the source that are not given here.

Tests used:
[1] = test system: PHA-stimulated lymphocytes in whole blood; experiment: ex vivo lymphocyte stimulation assay; type: cell-based, human
[2] = pharmacokinetics, plasma concentrations by LC-MS/MS; details: for half-life / AUC / Cmax / Tmax: human, plasma, intravenous; for AUC / Cmax: mean
[3] = 2-h infusion, 29.6 mg m^−2, n=5
[4] = 2-h infusion, 41.4 mg m^−2, n=6

CCc1cnn2c(NCc3ccc[n+]([O-])c3)cc(N3CCCC[C@H]3CCO)nc12 [dinaciclib, Dinaciclib]
dose achieving reductions to <5% BrdU incorporation ([1]; 2-h infusions): ≥ 7.4 mg m^−2 | dose reproducibly achieving a sustained PD effect through 8 h ([1]; 2-h infusions): ≥ 29.6 mg m^−2 | plasma concentration at which reductions to <5% BrdU incorporation were observed ([1]; 2-h infusions): ~200 ng/mL | dose achieving suppression of lymphocyte proliferation ([1]; 8-h infusions): ≥ 7.4 mg m^−2 | patients with pharmacodynamic reductions in BrdU incorporation ([1]; part 1, 2-h infusions): 24 of 35 | patients with reduction of PHA-stimulated BrdU incorporation to <5% at at least one post-dose time point ([1]; part 1, of the 24 patients with reductions): 23 | CL, mean ([2]; 2-h infusion, 1.85 mg m^−2, n=1): 13.6 L h^−1 m^−2 | CL, mean ([2]; 2-h infusion, 3.7 mg m^−2, n=1): 11.0 L h^−1 m^−2 | t1/2, mean ([2]; 2-h infusion, 3.7 mg m^−2, n=1): 2.84 h | CL, mean ([2]; 2-h infusion, 7.4 mg m^−2, n=1): 7.61 L h^−1 m^−2 | CL, mean ([2]; 2-h infusion, 14.8 mg m^−2, n=1): 13.8 L h^−1 m^−2 | CL, mean [2, 3]: 13.6 ^c L h^−1 m^−2 | t1/2, mean [2, 3]: 2.84 ^c h | CL, mean [2, 4]: 26.8 L h^−1 m^−2 | t1/2, mean [2, 4]: 2.86 h | CL, mean ([2]; 2-h infusion, 50 mg m^−2, n=15): 16.1 L h^−1 m^−2 | CL, mean ([2]; 2-h infusion, 58 mg m^−2, n=4): 18.9 L h^−1 m^−2 | Cmax, mean ([2]; 8-h infusion, 7.4 mg m^−2, n=6): 95.5 ng/mL | Cmax, mean ([2]; 8-h infusion, 14.8 mg m^−2, n=3): 95.8 ng/mL | Cmax, mean ([2]; 8-h infusion, 41.4 mg m^−2, n=2): 429 ng/mL | dose dependence of CL ([2]; based on the PK findings): dose-independent | half-life [2]: 1.4 to 3.3 h | AUC ([2]; 1.85 mg m^−2, AUC(l), 2-h infusion, 1.85 mg m^−2, n=1): 136 ng·h/mL | AUC ([2]; 1.85 mg m^−2, AUC(tf), 2-h infusion, 1.85 mg m^−2, n=1): 135 ng·h/mL | Cmax ([2]; 1.85 mg m^−2, Cmax, 2-h infusion, 1.85 mg m^−2, n=1): 62.5 ng/mL | AUC ([2]; 7.4 mg m^−2, AUC(l), 2-h infusion, 7.4 mg m^−2, n=1): 975 ng·h/mL | AUC ([2]; 7.4 mg m^−2, AUC(tf), 2-h infusion, 7.4 mg m^−2, n=1): 974 ng·h/mL | AUC ([2]; 7.4 mg m^−2, AUC(tf), 8-h infusion, 7.4 mg m^−2, n=6): 687 ng·h/mL | AUC ([2]; 7.4 mg m^−2, AUC(tf), 24-h infusion, 7.4 mg m^−2, n=4): 877 ng·h/mL | Cmax ([2]; 7.4 mg m^−2, Cmax, 2-h infusion, 7.4 mg m^−2, n=1): 353 ng/mL | Cmax ([2]; 7.4 mg m^−2, Cmax, 24-h infusion, 7.4 mg m^−2, n=4): 41.4 ng/mL | Tmax ([2]; 7.4 mg m^−2, Tmax, median, 8-h infusion, 7.4 mg m^−2, n=4): 4 h | Tmax ([2]; 7.4 mg m^−2, Tmax, median, 24-h infusion, 7.4 mg m^−2, n=1): 24 h | AUC ([2]; 10.4 mg m^−2, AUC(tf), 24-h infusion, 10.4 mg m^−2, n=3): 982 ng·h/mL | Cmax ([2]; 10.4 mg m^−2, Cmax, 24-h infusion, 10.4 mg m^−2, n=3): 51.4 ng/mL | Tmax ([2]; 10.4 mg m^−2, Tmax, median, 24-h infusion, 10.4 mg m^−2, n=2): 15 h | AUC ([2]; 14.6 mg m^−2, AUC(tf), 24-h infusion, 14.6 mg m^−2, n=3): 2590 ng·h/mL | Cmax ([2]; 14.6 mg m^−2, Cmax, 24-h infusion, 14.6 mg m^−2, n=3): 161 ng/mL | Tmax ([2]; 14.6 mg m^−2, Tmax, median, 24-h infusion, 14.6 mg m^−2, n=2): 15 h | half-life ([2]; 14.8 mg m^−2): 2.78 h | AUC ([2]; 14.8 mg m^−2, AUC(l), 2-h infusion, 14.8 mg m^−2, n=1): 1060 ng·h/mL | AUC ([2]; 14.8 mg m^−2, AUC(tf), 2-h infusion, 14.8 mg m^−2, n=1): 1060 ng·h/mL | AUC ([2]; 14.8 mg m^−2, AUC(tf), 8-h infusion, 14.8 mg m^−2, n=3): 702 ng·h/mL | Cmax ([2]; 14.8 mg m^−2, Cmax, 2-h infusion, 14.8 mg m^−2, n=1): 396 ng/mL | Tmax ([2]; 14.8 mg m^−2, Tmax, median, 8-h infusion, 14.8 mg m^−2, n=3): 4 h | AUC ([2]; 29.6 mg m^−2, AUC(l), 2-h infusion, 29.6 mg m^−2, n=5): 2440 ng·h/mL | AUC ([2]; 29.6 mg m^−2, AUC(tf), 2-h infusion, 29.6 mg m^−2, n=5): 2060 ng·h/mL | AUC ([2]; 29.6 mg m^−2, AUC(tf), 8-h infusion, 29.6 mg m^−2, n=3): 2300 ng·h/mL | Cmax ([2]; 29.6 mg m^−2, Cmax, 2-h infusion, 29.6 mg m^−2, n=6): 890 ng/mL | Cmax ([2]; 29.6 mg m^−2, Cmax, 8-h infusion, 29.6 mg m^−2, n=3): 333 ng/mL | Tmax ([2]; 29.6 mg m^−2, Tmax, median, 8-h infusion, 29.6 mg m^−2, n=3): 4 h | AUC ([2]; 41.4 mg m^−2, AUC(l), 2-h infusion, 41.4 mg m^−2, n=6): 2880 ng·h/mL | AUC ([2]; 41.4 mg m^−2, AUC(tf), 2-h infusion, 41.4 mg m^−2, n=6): 2860 ng·h/mL | AUC ([2]; 41.4 mg m^−2, AUC(tf), 8-h infusion, 41.4 mg m^−2, n=2): 3300 ng·h/mL | Cmax ([2]; 41.4 mg m^−2, Cmax, 2-h infusion, 41.4 mg m^−2, n=6): 1300 ng/mL | Tmax ([2]; 41.4 mg m^−2, Tmax, median, 8-h infusion, 41.4 mg m^−2, n=1): 4 h | AUC ([2]; 50 mg m^−2, AUC(l), 2-h infusion, 50 mg m^−2, n=15): 3940 ng·h/mL | AUC ([2]; 50 mg m^−2, AUC(tf), 2-h infusion, 50 mg m^−2, n=15): 3910 ng·h/mL | AUC ([2]; 50 mg m^−2, AUC(tf), 8-h infusion, 50 mg m^−2, n=2): 3670 ng·h/mL | Cmax ([2]; 50 mg m^−2, Cmax, 2-h infusion, 50 mg m^−2, n=15): 1810 ng/mL | Cmax ([2]; 50 mg m^−2, Cmax, 8-h infusion, 50 mg m^−2, n=2): 475 ng/mL | Tmax ([2]; 50 mg m^−2, Tmax, median, 8-h infusion, 50 mg m^−2, n=2): 8 h | AUC ([2]; 58 mg m^−2, AUC(l), 2-h infusion, 58 mg m^−2, n=4): 3370 ng·h/mL | AUC ([2]; 58 mg m^−2, AUC(tf), 2-h infusion, 58 mg m^−2, n=4): 3360 ng·h/mL | Cmax ([2]; 58 mg m^−2, Cmax, 2-h infusion, 58 mg m^−2, n=4): 1460 ng/mL | Tmax ([2]; Tmax, after the initiation of the 2-h infusion, 35 patients in Part 1, across doses): 1 to 2 h | Tmax ([2]; Tmax, after the start of the 8-h infusion, 16 patients): 4 to 8 h | Tmax ([2]; Tmax, after the start of the 24-h infusion): 6 to 24 h
